From patent US20210369738A1, “PRODUCTION METHOD OF TELOMERASE ACTIVATORS AND TELOMERASE ACTIVATORS OBTAINED BY THIS METHOD” (IZMIR YUKSEK TEKNOLOJI ENSTITUSU, priority 2017, published 2021)

How the values were obtained:
[1] = as a telomerase activator; cited from earlier work
telomerase enzyme = target: T1, telomerase enzyme (Homo sapiens, UniProt O14746); assay: Telomerase activation, TELOTAGGG PCR ELISAPLUS kit, HEKn cells; type: cell-based; details: 24-hour incubation
T1 construct: host or cells: HEKn (human primary epidermal keratinocytes)
T1 sequence (O14746 whole entry): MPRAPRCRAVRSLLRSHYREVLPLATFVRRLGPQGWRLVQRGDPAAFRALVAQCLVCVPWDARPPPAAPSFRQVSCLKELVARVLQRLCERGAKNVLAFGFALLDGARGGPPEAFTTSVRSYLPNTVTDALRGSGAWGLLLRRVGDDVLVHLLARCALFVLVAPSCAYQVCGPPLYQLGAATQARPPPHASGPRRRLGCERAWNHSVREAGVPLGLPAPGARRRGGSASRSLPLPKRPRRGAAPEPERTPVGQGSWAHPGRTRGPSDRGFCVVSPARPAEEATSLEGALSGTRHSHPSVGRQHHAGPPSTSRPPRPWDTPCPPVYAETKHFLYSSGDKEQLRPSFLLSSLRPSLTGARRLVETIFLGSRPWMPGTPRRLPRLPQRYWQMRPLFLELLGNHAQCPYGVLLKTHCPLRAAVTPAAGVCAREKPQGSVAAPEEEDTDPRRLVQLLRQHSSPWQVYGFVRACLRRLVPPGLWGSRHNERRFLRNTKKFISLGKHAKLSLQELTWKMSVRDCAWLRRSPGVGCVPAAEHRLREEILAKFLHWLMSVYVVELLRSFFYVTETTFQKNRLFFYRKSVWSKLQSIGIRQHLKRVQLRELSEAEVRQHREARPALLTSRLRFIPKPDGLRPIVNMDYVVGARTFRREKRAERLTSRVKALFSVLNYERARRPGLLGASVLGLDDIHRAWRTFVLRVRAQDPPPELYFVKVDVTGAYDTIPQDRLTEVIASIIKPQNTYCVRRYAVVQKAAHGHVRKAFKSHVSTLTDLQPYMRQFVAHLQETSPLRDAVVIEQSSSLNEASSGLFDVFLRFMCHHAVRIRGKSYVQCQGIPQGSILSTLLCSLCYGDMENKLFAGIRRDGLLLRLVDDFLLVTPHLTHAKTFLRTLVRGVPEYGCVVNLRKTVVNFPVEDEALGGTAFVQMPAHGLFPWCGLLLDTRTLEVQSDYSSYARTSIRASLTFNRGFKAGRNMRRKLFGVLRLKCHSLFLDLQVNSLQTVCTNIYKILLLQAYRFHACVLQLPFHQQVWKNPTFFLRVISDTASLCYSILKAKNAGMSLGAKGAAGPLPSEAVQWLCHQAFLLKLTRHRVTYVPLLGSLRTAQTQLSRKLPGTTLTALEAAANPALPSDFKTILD
Procedure: Telomerase activation tests were performed on selected molecules as follows; For culturing HEKn (Human Primer Epidermal Keratinocyte, ATCC; PCS-200-010) cells, the cell medium containing the components given in Table 2 is prepared and the cells are grown in the Dermal Cell Basal medium (PCS-200-030) supplemented with components in 5% CO2 environment at 37° C.
Telomerase activation was performed using the TELOTAGGG PCR ELISAPLUS kit (Roche; 12013789001, 16× version), a highly sensitive and quantitative method, according to the manufacturer's protocol, as follows:
After application of the selected molecules to HEKn cell lines at the defined dose interval and completion of 24-hour incubation, cells are collected and counted by hemocytometer. 2×10^5 cells are transferred to clean microcentrifuge tubes and then centrifuged at 3000×g for 5 min (at 4° C.). The supernatant is removed and the cells in the pellet are suspended with 200 μl of lysis buffer (Solution 1) and incubated on ice for 30 min. After incubation the lysates are centrifuged at 16,000×g for 20 min (at 4° C.) and the cooled supernatant is transferred to clean microcentrifuge tubes.
PCR is designed for sample group and control group. 25 μl reaction mixture (Solution 2) and 5 μl internal standard solution (Solution 3) are transferred to the PCR tubes for both the positive and negative sample as well as for the sample to be investigated for activation or the prepared master mixture is taken to a 30 μl PCR tube to contain this content. For the samples to be tested, 2 μl of each PCR sample is added from the cell lysate. For the control group, 1 μl of the low or high concentration TS8 control sample (Solution 4 or 5) is transferred to a separate PCR tube. From the lysis buffer (Solution 1), 1 μl is transferred to a separate PCR tube.
For each sample, 10 μl of the denaturing agent (Solution 7) is added to the nuclease-free 96-well plate. 2.5 μl of the amplified product is transferred to the plate and incubated for 10 min at +15 and +25° C. 100 μL Hybridization Buffer T (Solution 8) is added to a portion of the samples, 100 μL Hybridization Buffer IS (Solution 9) is added to the other portion. After homogenization, 100 μl of the reaction mixture is transferred to the MP module coated with streptavidin and the MP module is carefully closed with the special coating paper. After completion of the transfer process, the MP module is shaken at 300 rpm for 2 hours at 37° C. After incubation, the hybridization solutions are removed. Each well is washed 3 times with 250 μl of 1× wash buffer (Solution 10). The prepared anti-DIG-HRP working solution (Solution 11) is added to each of the wells. The MP module is sealed with special coating paper and incubated for 30 min at 15-25° C. with shaking at 300 rpm and the solution is carefully removed from the wells. Each well is washed 5 times in 1× wash buffer (Solution 10). From room temperature TMB substrate solution (Solution 13), 100 μl is added to each well. The MP module is covered with special coating paper and incubated at 15-25° C. for 10-20 minutes at 300 rpm with shaking. The color change is terminated by adding the post-incubation termination agent (Solution 14). The samples are measured at […] in a microplate reader for 30 min. Compounds showing telomerase activation in the 1.5-fold and higher levels according to DMSO used as a negative control were considered active.

Compound	bioavailability [1]	Fold increase over negative control (DMSO) (telomerase enzyme; 30 nM)	Fold increase over negative control (DMSO) (telomerase enzyme; 100 nM)	Fold increase over negative control (DMSO) (telomerase enzyme; 300 nM)	Fold increase over negative control (DMSO) (telomerase enzyme; 1000 nM)	Fold increase over negative control (DMSO) (telomerase enzyme; 2 nM)	Fold increase over negative control (DMSO) (telomerase enzyme; 10 nM)	Fold increase over negative control (DMSO) (telomerase enzyme; 50 nM)	Fold increase over negative control (DMSO) (telomerase enzyme; 0.5 nM)	Fold increase over negative control (DMSO) (telomerase enzyme; 0.1 nM)
CC(C)(O)[C@@H]1CC[C@](C)([C@H]2[C@@H](O)C[C@@]3(C)C4C[C@H](O)C5C(C)(C)[C@@H](O)CC[C@@]56C[C@@]46CC[C@]23C)O1 (some centres unmarked) [Cycloastragenol]	5%									
CC1(C)C(=O)C[C@H](O)[C@]23C[C@]24CC[C@]2(C)[C@@H]([C@@]5(C)CC[C@@H](C(C)(C)O)O5)[C@@H](O)C[C@@]2(C)C4C[C@H](O)C13 (some centres unmarked) [Molecule 1]		1.73 fold	0.72 fold	0.74 fold	1.2 fold					
CC1(C)C(=O)CC[C@]23C[C@]24CC[C@]2(C)[C@@H]([C@@]5(C)CC[C@@H](C(C)(C)O)O5)[C@@H](O)C[C@@]2(CO)C4C[C@H](O)C13 (some centres unmarked) [Molecule 3]		2.36 fold	0.78 fold	1.24 fold	1.07 fold					
CC(C)(O)[C@@H]1CC[C@](C)([C@H]2[C@@H](O)C[C@@]3(C)C4C[C@H](O)C5C(C)(C)[C@@H](O)CC[C@@]56C[C@@]46C[C@@H](O)[C@]23C)O1 (some centres unmarked) [Molecule 4]				2.13 fold		2.13 fold	2.22 fold	2.4 fold		
CC(C)(O)[C@@H]1CC[C@](C)([C@H]2[C@@H](O)C[C@@]3(C)C4C[C@H](O)C5C(C)(C)[C@@H](O)CC[C@@]56C[C@@]46C[C@H](O)[C@]23C)O1 (some centres unmarked) [Molecule 6]		2.37 fold				10 fold	6.38 fold		9.23 fold	
CC1(C)OC(=O)CC[C@]23C[C@]24CC[C@]2(C)[C@@H]([C@@]5(C)CC[C@@H](C(C)(C)O)O5)[C@@H](O)C[C@@]2(C)C4C[C@H](O)C13 (some centres unmarked) [Molecule 10]		4.6 fold				9.35 fold	9.95 fold		8.43 fold	
CC(C)(O)[C@@H]1CC[C@](C)([C@H]2[C@@H](O)C[C@@]3(C)C4C[C@H](O)[C@@H](C(C)(C)O)[C@@]5(CCC(=O)O)C[C@@]45CC[C@]23C)O1 (some centres unmarked) [Molecule 11]		3.17 fold				1.9 fold	1.73 fold		2.08 fold	
CC1(C)C(=O)CC[C@]23C[C@]24CC[C@]2(C)[C@@H]([C@@]5(C)CC[C@@H](C(C)(C)O)O5)[C@@H](O)C[C@@]2(C)C4C[C@H](O)C13 (some centres unmarked) [Molecule 12]		0.84 fold				2.14 fold	1.78 fold		4.65 fold	
CC(C)(O)[C@@H]1CC[C@](C)([C@H]2[C@@H](O)C[C@@]3(C)C4C[C@H](O)C5C(C)(C)[C@@H](O)CC[C@]5(C)C4=C[C@@H](O)[C@]23C)O1 (some centres unmarked) [Molecule 14]				0.53 fold		2.53 fold	1.62 fold	1.6 fold		
CC(C)(O)[C@@H]1CC[C@](C)([C@H]2[C@@H](O)C[C@@]3(C)C4C[C@H](O)C5C(C)(C)[C@@H](O)CC[C@]5(C)C4=C[C@H](O)[C@]23C)O1 (some centres unmarked) [Molecule 16]						2.78 fold	0.95 fold		2.31 fold	0.98 fold
CC(C)(O)[C@@H]1CC[C@](C)([C@H]2[C@@H](O)C[C@@]3(C)C4C[C@H](O)C5C(C)(C)[C@@H](O)CC[C@]5(C)C4=CC(=O)[C@]23C)O1 (some centres unmarked) [Molecule 17]						1.33 fold	1 fold	1.57 fold	0.42 fold	
CC(C)(O)[C@@H]1CC[C@](C)([C@H]2[C@@H](O)C[C@@]3(C)C4C[C@H](O)[C@@H](C(C)(C)O)[C@](C)(CCC(=O)O)C4=CC[C@]23C)O1 (some centres unmarked) [Molecule 19]		1.93 fold				1.24 fold	11.32 fold		2.65 fold	
C=C(C)[C@@H]1[C@@H](O)CC2C(=CC[C@]3(C)[C@@H]([C@@]4(C)CC[C@@H](C(C)(C)O)O4)[C@@H](O)C[C@@]23C)[C@@]1(C)CCC(=O)O (some centres unmarked) [Molecule 20]		7.86 fold				5.23 fold	6.04 fold		9.01 fold	
CC1(C)C(=O)CC[C@]2(C)C3=CC[C@]4(C)[C@@H]([C@@]5(C)CC[C@@H](C(C)(C)O)O5)[C@@H](O)C[C@@]4(C)C3C[C@H](O)C12 (some centres unmarked) [Molecule 21]		1.18 fold				1.43 fold	1.04 fold		9.25 fold	
